We go through 4 molecules from paper PMC3988085, “In Vitro Metabolism of 20(R)-25-Methoxyl-Dammarane-3, 12, 20-Triol from Panax notoginseng in Human, Monkey, Dog, Rat, and Mouse Liver Microsomes” (PLoS ONE, 2014).

For series [1], the target named is CYP3A4 (Homo sapiens, UniProt P08684). Kind of series: Inhibition of CYP3A4 catalytic activity by 25(R)-OCH3-PPD. Format: in vitro ADME.
The conditions of series [2]: rat, in vivo, 10 mg/kg; cited from earlier work.
Series [3] concerns rat liver microsomes (RLM). Kind of series: Metabolite formation in rat liver microsomes, 60 min. Format: in vitro ADME, Sprague-Dawley rats. As to conditions: RLM 1 mg/ml, 50 µM 25(R)-OCH3-PPD, NADPH. Here is the method: (§1) 25(R)-OCH3-PPD were incubated in hepatic microsomes to examine the potential P450-mediated metabolism. Stock solutions of 2 mM 25(R)-OCH3-PPD was prepared in methanol. The final methanol concentration in the incubation was 2.5% (v/v). The liver microsomes were carefully thawed on ice before the experiment.
(§2) For NADPH dependent oxidative metabolism study, the reaction media contained 1 mg/ml of microsomal proteins, 10 mM G-6-P, 10 mM MgCl2, 1 U/ml G-6-PDH, 50 µM concentration of 25(R)-OCH3-PPD in potassium phosphate buffer (pH 7.4; 0.1 M) in a total volume of 200 µl. Negative control incubations containing no NADPH-regenerating system were conducted. All incubations were performed at 37°C in a shaking water bath for 60 min.
(§3) After 5 min preincubation at 37°C, the incubation reactions were initiated with the addition of microsome proteins. After undergoing incubation for 60 min, the reactions were terminated with an equal volume of ice-cold acetonitrile and 10 µl diazepam (5 µg/ml, internal standard) was added. This sample was vortex-mixed and centrifuged at 14,000 g for 5 min. […] The residue was reconstituted in 100 µl of methanol with 0.1% formic acid, centrifuged 10 min at 18000 rpm and then an aliquot 5 µL of the supernatant was directly injected onto the HPLC-MS system for quanlitative or quantitative analysis.

Series [4] relates to cynomolgus monkey liver microsomes (CyLM). Kind of series: Metabolite formation in monkey liver microsomes, 60 min. The format is in vitro ADME. As to conditions: CyLM 1 mg/ml, 50 µM 25(R)-OCH3-PPD, NADPH. Here is the method: as §1, §2, §3
(In general: Liver microsomes are a subcellular fraction often used to study metabolism.)

In series [5] the test system is human liver microsomes (HLM). Kind of series: Metabolite formation in human liver microsomes, 60 min. Format: in vitro ADME. To be noted: HLM 1 mg/ml, 50 µM 25(R)-OCH3-PPD, NADPH. As to the method:
as §1, §2, §3

Series [6] deals with mouse liver microsomes (MLM). The experiment in a line: Metabolite formation in mouse liver microsomes, 60 min. The format is in vitro ADME, CD-1 mice. To be noted: MLM 1 mg/ml, 50 µM 25(R)-OCH3-PPD, NADPH. Here is the method: as §1, §2, §3
Series [7] relates to dog liver microsomes (DLM). Kind of series: Metabolite formation in dog liver microsomes, 60 min. Format: in vitro ADME, beagles. As to conditions: DLM 1 mg/ml, 50 µM 25(R)-OCH3-PPD, NADPH. As to the method:
as §1, §2, §3

The subject of series [8] is CYP3A. The experiment in a line: Chemical inhibition study in human hepatic microsomes (ketoconazole). Format: in vitro ADME. As to the method: The chemical inhibition study was performed by adding each of the specific inhibitors of P450 enzymes into the incubation of 25(R)-OCH3-PPD (3 or 10 µM) in 0.25 mg/ml HLM incubation systems containing an NADPH-regenerations system as described above. The chemical inhibitors and concentration were selected on the basis of previous reports and are as follows: α-naphthoflavone (10.0 µM) for CYP1A2, quercetin (10 µM) for CYP2C8, sulfaphenazole (10.0 µM) for CYP2C9, ticlopidine (5 µM) for CYP2C19, quinidine (10.0 µM) CYP2D6, diethyl dithiocarbamate (20 µM) for CYP2E1, and ketoconazole (0.1, 0.25, 0.5, 1 and 5 µM) for CYP3A.
The inhibitors were dissolved in dimethyl sulfoxide, and the final concentration of dimethyl sulfoxide in the incubation was 1% (v/v). The final incubation volume was 200 µl. Microsomes were preincubated for 5 min with a NADPH-regenerating system at 37°C, the reactions were initiated with the addition of 25(R)-OCH3-PPD and inhibitor. The reactions were terminated with an equal volume of ice-cold acetonitrile after 30 min of incubation. Parallel incubations without chemical inhibitors served as control. Samples were prepared as mentioned above to measure the concentration of parent and the metabolites by HPLC-MS/MS analysis.

Chain of CYP3A4 (P08684 whole entry): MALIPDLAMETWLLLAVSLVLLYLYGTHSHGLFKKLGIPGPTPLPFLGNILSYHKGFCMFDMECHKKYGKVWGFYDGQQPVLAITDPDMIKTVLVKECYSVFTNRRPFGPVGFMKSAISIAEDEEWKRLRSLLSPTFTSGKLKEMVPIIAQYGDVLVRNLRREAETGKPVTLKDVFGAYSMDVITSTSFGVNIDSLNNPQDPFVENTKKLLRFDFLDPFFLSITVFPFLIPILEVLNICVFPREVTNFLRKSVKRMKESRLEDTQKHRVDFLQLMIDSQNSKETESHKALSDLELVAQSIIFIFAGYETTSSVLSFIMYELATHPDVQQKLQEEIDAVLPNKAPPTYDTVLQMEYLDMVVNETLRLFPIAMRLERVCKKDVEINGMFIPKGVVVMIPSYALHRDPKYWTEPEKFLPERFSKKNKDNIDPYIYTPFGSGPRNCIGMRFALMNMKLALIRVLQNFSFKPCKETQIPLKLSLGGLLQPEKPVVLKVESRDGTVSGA

For `COC(C)(C)CCC[C@@](C)(O)C1CC[C@]2(C)C1[C@H](O)CC1[C@@]3(C)CC[C@H](O)C(C)(C)C3CC[C@]12C` (stereo partly drawn) [25(R)-OCH3-PPD, 20(R)-25-methoxyl-dammarane-3β, 12β, 20-triol], the “inhibition of the CYP3A4 catalytic activity” value in series [1] was “NADPH and concentration-dependent”.
As for `COC(C)(C)CCC[C@](C)(O)[C@H]1CC[C@]2(C)[C@@H]1[C@H](O)C[C@@H]1[C@@]3(C)CC[C@H](O)C(C)(C)[C@@H]3CC[C@]12C` [25(S)-OCH3-PPD, 20(S)-25-methoxyl-dammarane-3beta, 12beta, 20-triol], in series [2], the absolute bioavailability was 19.7%.
For the molecule `CC(C)(O)CCC[C@@](C)(O)C1CC[C@]2(C)C1[C@H](O)CC1[C@@]3(C)CC[C@H](O)C(C)(C)C3CC[C@]12C` (stereo partly drawn) [Metabolite M1], the “relative amount of metabolite formed” value in series [3] is “dominant metabolite”; in series [4] it was “minor metabolite”; in series [5], “minor metabolite”; in series [6], “dominant metabolite”; in series [7] it was “intermediate relative amount”.
Take `CC(=O)N1CCN(c2ccc(OCC3COC(Cn4ccnc4)(c4ccc(Cl)cc4Cl)O3)cc2)CC1` (stereo not drawn) [ketoconazole]: the “effect on the oxidative metabolism of 25(R)-OCH3-PPD” value in series [8] (HLM 0.25 mg/ml, 25(R)-OCH3-PPD 10 µM, 30 min) was “significant inhibitory effect”. Further, the “inhibition of formation of M5” value in series [8] (HLM, ketoconazole 0.1 µM) is given as “completely”. For the same molecule, the “effect on formation of M1 and M6” value in series [8] (HLM, ketoconazole 5 µM) was “inhibited”; in series [8] (HLM, ketoconazole 0.1–1 µM) it was “activated”. Moreover, the “effect on formation of M2, M3, M4, M5, M7” value in series [8] (HLM, ketoconazole 0.1-5 µM, concentration dependent) is listed as “inhibited”.
